How the values were obtained:
Annual Rye = experiment: Laboratory trial: Annual Rye seeds in trays of potting soil, sprayed every other day; format: in vivo; details: averages of 74 plants per tray after 1 week; for Root Length, percent inc (versus sugar solution): increase over sugar solution (2.9 cm); for Blade Length, percent increase (versus sugar solution): increase over sugar solution (6.3 cm); for Blade Length / Root Length: ingredient added to standard sugar solution (Ni 0.003% w/w, Co 0.003% w/w, nitrogen-15 0.00001% w/w), spray 12 ml per square meter every other day
Experimental: Some characteristics of the plant growth regulating composition according to the invention are illustrated by the following examples. The laboratory trial involved planting Annual Rye seeds in trays of commercially available potting soil. The seed density on the trays was 358 grams per square meter. The volume of each spray was 12 ml per square meter after the grass emerged. The spray frequency was every other day. The following ingredients were added at these concentrations to a standard sugar solution: Ni 0.003% w/w (Nickel), Co 0.003% w/w (cobalt) and nitrogen-15 0.00001% w/w.

Common Bermuda = experiment: Trial on turf, sprayed once with nitrogen-15 spray solutions; format: in vivo
Experimental: A trial on turf was conducted on Common Bermuda. The turf was sprayed once with spray solutions that contained four concentrations of nitrogen-15 ammonium sulfate. The concentrations ranged from: 0.001% though 0.004% w/w. The nitrogen-15 was mixed with a sugar solution as in the laboratory trial.

## [Co] [Co, cobalt]
Annual Rye
  Root Length, percent inc (versus sugar solution): 41.40%
  Blade Length, percent increase (versus sugar solution): 11.10%
  Blade Length: 7.0 cm
  Root Length: 4.1 cm

## [Ni] [Ni, Nickel]
Annual Rye
  Root Length, percent inc (versus sugar solution): 41.40%
  Blade Length, percent increase (versus sugar solution): 15.90%
  Blade Length: 7.3 cm
  Root Length: 4.1 cm

## O=S(=O)(O)O.[15NH3].[15NH3] [nitrogen-15 ammonium sulfate]
Common Bermuda; plot sprayed once with 0.004% w/w in sugar solution, four concentrations 0.001% through 0.004% w/w compared
  visual color of turf plot: darkest green
Common Bermuda; turf sprayed once, 0.001% through 0.004% w/w in sugar solution
  Percent increase in leaf length: the same as the laboratory trial

## Nitrogen-15
Annual Rye
  Root Length, percent inc (versus sugar solution): 20.70%
  Blade Length, percent increase (versus sugar solution): 25.40%
  Blade Length: 7.9 cm
  Root Length: 3.5 cm
